# ChEMBL document CHEMBL1759879, “A new quinoline derivative with cytotoxic activity from Streptomyces sp. neau50” (Bioorg Med Chem Lett, 2011)
# Calls of active or inactive are those of the source. The calls are words filed in the database; no cut-off is given here.
# Legend:
# [1] = tested on: Candida albicans; experiment: Antimicrobial activity against Candida albicans at 10 uM by agar diffusion method; format: functional, organism-based
# [2] = tested on: A549; experiment: Cytotoxicity against human A549 cells after 72 hrs colorimetric assay; format: functional, cell-based; details: A549, 72 h
# [3] = tested on: Staphylococcus epidermidis; experiment: Antimicrobial activity against Staphylococcus epidermidis at 10 uM by agar diffusion method; format: functional, organism-based
smiles,measurement,setting,value
COC(=O)c1cc(C)nc2c(CCC(C)(C)OC)cccc12,Activity,[1],inactive
same,IC50,[2],29.3 µg/mL
same,Activity,[3],inactive
